Source: patent publication US20220167853A1, “Method for plaque detection” (Koite Health Oy, priority 2019, published 2022)
“Also recorded” adds a separate entry of the source.

Tests used:
[1] = system: Streptococcus mutans biofilm; experiment: Streptococcus mutans monospecies biofilm model, PDT with indocyanine green, viability by serial dilution CFU; type: cell-based, Streptococcus mutans (ATCC 25175); conditions: 250 μg/ml ICG with 810 nm light
Description: Two separate monospecies biofilm model experiments were performed to study the effect of reoccurring photodynamic therapy on biofilm formation. The Streptococcus mutans biofilm experiments were divided in different classes based on biofilm age and the therapy given.
The one-time PDT treatment was performed for 1 day, 2 days and 4 days old biofilms. […] The viability of the bacteria was assessed by serial dilution CFU method which was performed after the last photodynamic therapy treatment.
Streptococcus mutans (ATCC 25175) bacteria was grown over 18 h in growth chamber (36° C., 5% CO2) in BHI-broth (Bio-Rad 3564014). The resulting bacteria suspension was diluted with 0.9% NaCl suspension to optical density of 0.46.
Biofilm was grown on bottom of well plate by adding 100 ul diluted Streptococcus mutans suspension in each well with 100 μl of BHI-broth growth medium. The bacteria plate was incubated in growth chamber (36 Celsius, 5% CO2) and BHI-broth medium changed daily.
Before the light exposure, the growth medium was replaced with indocyanine green suspension which was let to incubate in dark in room temperature for 10 minutes. […] The treatment time was calculated from desired light amount and known intensity.
The light exposure was performed by placing the well plate under known LED light source. The given light intensity was analyzed with Thorlabs PM100D and S121C sensor head. […]

[2] = system: Streptococcus mutans biofilm; experiment: Potentiation of chlorhexidine with dual wavelength PDT; type: cell-based; conditions: versus reference and treatment with only one wavelength; FIG. 3
Description: Treatment can be combined with use of antibiotics and disinfectants for synergist antipathogen effect. For example, the use phototherapy with chlorhexidine to target biofilms is new to oral disinfection. The results of dual wavelength photodynamic therapy with chlorhexidine against Streptococcus mutans biofilm shown in appendix III are completely new. […] The effectivity is based on photon and anionic photosensitizer ability to penetrate deeper into biofilm and provide efficient bacteria killing inside the biofilm as well as on the surface. The chlorhexidine effect is mostly present only on the surface of the biofilm. High energy photons reduce the biofilm EPS matrix formation that further increases the chlorhexidine effectivity in subsequent treatments. In a second series of tests, potentiation of chlorhexidine with dual wavelength PDT was evaluated.

[3] = system: monospecies biofilm of Streptococcus sobrinus; conditions: monospecies biofilm vs planktonic form; cited from earlier work

Compound	effect of PDT treatment on biofilm (CFU) ([1]; single wavelength, 4 days old biofilm treated every day)	effect of PDT treatment on biofilm (CFU) ([1]; treatment given once to 1, 2 and 4 days old biofilms)	antimicrobial effect of chlorhexidine combined with multi (dual) wavelength PDT [2]	greater concentration needed to kill biofilm than planktonic counterpart [3]
CC1(C)C(/C=C/C=C/C=C/C=C2\N(CCCCS(=O)(=O)O)c3ccc4ccccc4c3C2(C)C)=[N+](CCCCS(=O)(=O)[O-])c2ccc3ccccc3c21 [ICG, Indocyanine Green]	poor treatment effect	strong effect	–	–
[H]/N=C(\N/C(=N/[H])NCCCCCCNC(=N)NC(=N)Nc1ccc(Cl)cc1)Nc1ccc(Cl)cc1 [chlorhexidine]	–	–	increased substantially; also recorded: much stronger effect	100 time
amine fluoride	–	–	–	100 time
